Laboratory results published in PubChem BioAssay (NCI).
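Cells were grown in 96-well plates and exposed to each compound for 48 hours at five concentrations; endpoints were interpolated linearly between bracketing concentrations, or set to the highest concentration if not reached. Definition used: TGI = concentration required for complete inhibition of growth.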

Legend:
Assay in all cases: growth of human tumour cells (NCI), 48 h
CAKI-1 renal = tested on: CAKI-1 renal
COLO 205 colon = tested on: COLO 205 colon
HCT-15 colon = tested on: HCT-15 colon
KM12 colon = tested on: KM12 colon
MDA-MB-231 breast = tested on: MDA-MB-231 breast
MDA-N = tested on: MDA-N
OVCAR-8 ovarian = tested on: OVCAR-8 ovarian
SK-MEL-28 melanoma = tested on: SK-MEL-28 melanoma
SW-620 colon = tested on: SW-620 colon
U251 CNS = tested on: U251 CNS

SMILES | TGI (CAKI-1 renal) | TGI (COLO 205 colon) | TGI (HCT-15 colon) | TGI (KM12 colon) | TGI (MDA-MB-231 breast) | TGI (MDA-N) | TGI (OVCAR-8 ovarian) | TGI (SK-MEL-28 melanoma) | TGI (SW-620 colon) | TGI (U251 CNS)
CC(=O)CC1(C)OC(N)=C(C#N)C1(C#N)C#N (stereo not given) | > 100 µM | > 100 µM | > 100 µM | > 100 µM | > 100 µM | > 100 µM | > 100 µM | > 100 µM | > 100 µM | > 100 µM
COc1ccc(C=Nc2ccc(-c3nc4ccccc4[nH]3)cc2)cc1OC | > 100 µM | > 100 µM | > 100 µM | > 100 µM | > 100 µM | > 100 µM | > 100 µM | > 100 µM | > 100 µM | > 100 µM
CCN(CC)CCN(C)CCc1ccc(Br)cc1 | > 100 µM | 39.5 µM | > 100 µM | > 100 µM | > 100 µM | > 100 µM | > 100 µM | > 100 µM | > 100 µM | > 100 µM
CCOC(=O)/C(C#N)=C/N(CC)/N=C/c1ccccc1 | > 100 µM | > 100 µM | > 100 µM | > 100 µM | > 100 µM | > 100 µM | > 100 µM | > 100 µM | > 100 µM | > 100 µM
CCCCCCOP(=O)(OCCCCCC)OC(C(=O)OC)C(F)(F)F (stereo not given) | > 100 µM | > 100 µM | > 100 µM | > 100 µM | > 100 µM | > 100 µM | > 100 µM | > 100 µM | > 100 µM | > 100 µM
CO[P@]1(=O)O[C@@H](c2ccccc2)[C@H](O)[C@@]1(O)c1ccccc1 | > 100 µM | > 100 µM | > 100 µM | > 100 µM | > 100 µM | > 100 µM | > 100 µM | > 100 µM | > 100 µM | > 100 µM
O=C1CC2(CCNCC2)C(=O)N1N1CCOCC1 | > 100 µM | > 100 µM | > 100 µM | > 100 µM | > 100 µM | > 100 µM | > 100 µM | > 100 µM | > 100 µM | > 100 µM
O=[N+]([O-])/C=C/c1cn(CCCCCn2cc(/C=C/[N+](=O)[O-])c3ccccc32)c2ccccc12 | > 53.6 µM | > 46.1 µM | 8.67 µM | 3.94 µM | 4.28 µM | 6.67 µM | 16.5 µM | 12.2 µM | 2.57 µM | 3.89 µM
CCCNC(=O)CCC(C)[C@H]1CCC2C3C(C[C@H](OC(C)=O)[C@@]21C)[C@@]1(C)CCC2(C[C@H]1C[C@H]3OC(C)=O)OOC1(CCCCC1)OO2 (stereo not given in full) | 1.54 µM | 3.64 µM | > 100 µM | 3.56 µM | 5.31 µM | 16.6 µM | 4.3 µM | > 100 µM | > 75.5 µM | 3.84 µM
CC/C(Cl)=N\OC(=O)Nc1ccc(F)cc1F | 3.09 µM | 3.6 µM | 5.24 µM | 41.3 µM | 36.7 µM | 12.6 µM | 37.3 µM | 35.9 µM | 2.95 µM | 55.6 µM
COC(=O)c1ccc(/C=C2\CCc3ccccc3C2=O)cc1 | > 100 µM | > 100 µM | > 100 µM | > 100 µM | > 100 µM | > 100 µM | > 100 µM | > 100 µM | > 100 µM | > 100 µM
CC1(C)[C@@H]2CC[C@@]1(C)[C@H](O)[C@@H]2SCc1ccccc1 | 43.1 µM | 34.1 µM | 29.7 µM | 36.4 µM | 33 µM | 43.4 µM | 37.2 µM | 38.4 µM | 74.9 µM | 31.7 µM
CCCCCCCCCCCCCCCCOCC(Cl)COP(=O)(O)OP(=O)(O)OCC1OC(n2cnc3c(N)ncnc32)C(O)C1O (stereo not given) | > 100 µM | > 100 µM | > 100 µM | > 100 µM | > 100 µM | > 100 µM | > 100 µM | > 100 µM | > 100 µM | > 100 µM
CC(=O)c1ccc(NC(=O)CSc2nc(C)nc3c2sc(=S)n3-c2ccccc2)cc1 | > 3.16 µM | > 3.16 µM | > 3.16 µM | > 3.16 µM | > 3.16 µM | > 3.16 µM | > 10 µM | > 3.16 µM | > 3.16 µM | > 3.16 µM
CC1=C2NCN(C)N=C2C(C#N)(C#N)C1(C#N)C#N | 17.9 µM | 19.9 µM | 40.5 µM | > 100 µM | 36.2 µM | 30 µM | > 58.2 µM | 49.9 µM | 42.2 µM | > 76.9 µM
Cc1ccc2c(c1)CC1(C2=O)[C@H](c2ccccc2)C2C(=O)c3ccc(C)cc3C2[C@H]1c1ccccc1 (stereo not given in full) | > 100 µM | > 100 µM | > 100 µM | > 100 µM | > 100 µM | > 100 µM | > 100 µM | > 100 µM | > 100 µM | > 100 µM
CC(C)(C)c1ccc(-c2nnc(-c3cc(C#N)cc(-c4nnc(-c5ccc(C(C)(C)C)cc5)o4)c3)o2)cc1 | > 100 µM | > 100 µM | > 100 µM | > 100 µM | > 100 µM | > 100 µM | > 100 µM | > 100 µM | > 100 µM | > 100 µM
Cc1ccc(/C=C2\CN(C)CC3C2=NC(=S)NC3c2ccc(C)cc2)cc1 (stereo not given) | > 100 µM | > 71.7 µM | > 100 µM | > 100 µM | > 100 µM | 80.5 µM | > 100 µM | > 100 µM | > 100 µM | > 87.4 µM
